Read-outs that look alike come from different tables or passages of the source. *1 amine or outer side, *2 acyl side, *3 side chain or, on linkers, in order; H or OH if unused. Where a SMILES comes first, the peptide text is derived from it. Bridges are numbered along the chain shown (N, C = ends). [ ]: non-standard residue; d: D form. The star is where a group is joined. DOTA = O=C(O)CN1CCN(CC(=O)O)CCN(CC(=O)*)CCN(CC(=O)O)CC1; Pro(cis-4-F) = O=C(O)[C@@H]1C[C@H](F)CN1; Phe(4-NH2) = Nc1ccc(C[C@H](N)C(=O)O)cc1; Pro(4S-NH2) = N[C@@H]1CN[C@H](C(=O)O)C1; Dopa = N[C@@H](Cc1ccc(O)c(O)c1)C(=O)O; Hyp = O=C(O)[C@@H]1C[C@@H](O)CN1; hPhe = N[C@@H](CCc1ccccc1)C(=O)O; tBuAla = CC(C)(C)C[C@H](N)C(=O)O; Gly(cBu) = N[C@H](C(=O)O)C1CCC1; Pentanoyl(4-Me) = CC(C)CCC(=O)*; X1 = O=C(CN1CCN([*:1])CC1)[*:2]; Cit = NC(=O)NCCC[C@H](N)C(=O)O; NMeL = CN[C@@H](CC(C)C)C(=O)O; Butoxycarbonyl = CCCCOC(=O)*; NMeC = CN[C@@H](CS)C(=O)O; Orn = NCCC[C@H](N)C(=O)O; Nva = CCC[C@H](N)C(=O)O; Pentanoyl = CCCCC(=O)*
Assays:
[1] = target: T1, uPAR-expressing HEC-265 human endometrial adenocarcinoma cells (Homo sapiens, UniProt Q03405); experiment: Competitive FACS binding assay; conditions: pIC50 category of FACS binding
T1 construct: Cell surface uPAR-expressing HEC-265 human endometrial adenocarcinoma cells; host or cells: HEC-265
Method in brief: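 HEC-265 cells incubated 1 h at 4 °C with 10 nM biotinylated uPAR peptide tracer plus increasing test compound, then stained with APC-streptavidin on ice. Median APC fluorescence by flow cytometry; 4PL fit gives pIC50.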

[2] = target: T2, human uPAR (uPAR-Fc) (Homo sapiens, UniProt Q03405); experiment: Surface plasmon resonance (SPR) assay, single cycle kinetics; format: binding; conditions: pKD category for uPAR SPR activity assay, uPAR-Fc on Protein A-Chip, 25°C, read-out: pKD CAT (converted)
T2 construct: comprising amino acids Leu23-Arg303 according to UniProt entry Q03405.1; purchased R&D Systems 10378-UK-100
Method in brief: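 uPAR-Fc (Leu23-Arg303 extracellular domains, human IgG1 Fc) captured on Protein A chip to ~2000 RU; single-cycle kinetics at 25°C in HEPES running buffer pH 7.4 with 0.1% DMSO. KD from double-referenced sensorgrams fitted to 1:1 Langmuir model, reported as pKD.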

T1 sequence (Q03405 23-335): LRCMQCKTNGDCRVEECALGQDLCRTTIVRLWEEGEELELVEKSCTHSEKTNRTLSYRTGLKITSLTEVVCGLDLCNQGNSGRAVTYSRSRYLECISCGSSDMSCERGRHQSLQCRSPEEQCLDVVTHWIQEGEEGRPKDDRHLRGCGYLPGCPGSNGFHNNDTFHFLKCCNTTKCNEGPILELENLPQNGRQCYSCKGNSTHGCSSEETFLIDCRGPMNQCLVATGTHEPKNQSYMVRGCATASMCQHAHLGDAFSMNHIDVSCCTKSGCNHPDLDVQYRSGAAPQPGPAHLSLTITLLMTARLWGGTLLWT
T2 sequence (Q03405 23-303): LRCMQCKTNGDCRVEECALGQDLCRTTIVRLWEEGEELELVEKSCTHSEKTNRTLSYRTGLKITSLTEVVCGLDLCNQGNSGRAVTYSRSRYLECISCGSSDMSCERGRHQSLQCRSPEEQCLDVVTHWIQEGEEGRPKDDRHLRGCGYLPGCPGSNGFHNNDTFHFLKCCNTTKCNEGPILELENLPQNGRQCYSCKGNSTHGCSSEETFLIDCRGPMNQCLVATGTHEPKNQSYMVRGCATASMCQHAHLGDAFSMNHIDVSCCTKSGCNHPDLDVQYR

Compound | IC50 [1] | Kd ([2]; single cycle kinetics) | Kd [2]
CCCCOC(=O)N[C@H]1CSSC[C@@H](C(N)=O)NC(=O)[C@H](CCC)NC(=O)[C@H]([C@@H](C)CC)NC(=O)[C@@H]2C[C@@H](O)CN2C(=O)[C@@H]2C[C@H](F)CN2C(=O)[C@H](Cc2ccccc2)NC(=O)[C@H](Cc2ccc(O)c(O)c2)NC(=O)[C@H](CCCNC(=O)CN2CCN(CC(=O)O)CCN(CC(=O)O)CCN(CC(=O)O)CC2)NC(=O)[C@H]([C@@H](C)O)NC1=O [UPAR-280, Butoc-[Cys-Thr-Orn(DOTA)-Dopa-Phe-4Cfp-Hyp-Ile-Nva-Cys]-NH2] (Butoxycarbonyl-CT[Orn](DOTA)[Dopa]F[Pro(cis-4-F)][Hyp]I[Nva]C-NH2; disulfide 1-10) | ≤ 10 nM | – | < 1.58 nM
CCCCC(=O)N[C@H]1CSSC[C@@H](C(N)=O)NC(=O)[C@H](CC(C)C)N(C)C(=O)[C@H]([C@@H](C)CC)NC(=O)[C@@H]2C[C@@H](O)CN2C(=O)[C@@H]2CCCN2C(=O)[C@H](Cc2ccccc2)NC(=O)[C@H](Cc2ccc(O)cc2)NC(=O)[C@H](CCC(N)=O)NC(=O)[C@H](CCCNC(=N)N)NC1=O [UPAR-480, Pent-[Cys-Arg-Gln-Tyr-Phe-Pro-Hyp-Ile-Nml-Cys]-NH2] (Pentanoyl-CRQYFP[Hyp]I[NMeL]C-NH2; disulfide 1-10) | ≥ 126 nM | > 100 nM | –
CC[C@H](C)[C@@H]1NC(=O)[C@@H](C)NC(=O)[C@@H]2CCCN2C(=O)[C@H](Cc2ccccc2)NC(=O)[C@H](Cc2ccc(O)cc2)NC(=O)[C@H](CCC(N)=O)NC(=O)[C@@H](C)NC(=O)[C@@H](NC(=O)CCC(C)C)CSSC[C@@H](C(N)=O)NC(=O)[C@H](CC(C)C)NC1=O [UPAR-231, iHex-[Cys-ala-Gln-Tyr-Phe-Pro-ala-Ile-Leu-Cys]-NH2] ({Pentanoyl(4-Me)}-C[dA]QYFP[dA]ILC-NH2; disulfide 1-10) | 39.8 to 100 nM | – | 10 to 100 nM
CCCCC(=O)N[C@H]1CSSC[C@@H](C(N)=O)NC(=O)[C@H](CCC)NC(=O)[C@H]([C@@H](C)CC)NC(=O)CN2CCN(CC2)C(=O)[C@H](Cc2ccccc2)NC(=O)[C@H](Cc2ccc(O)cc2)NC(=O)[C@H](CCC(N)=O)NC(=O)[C@H](CCCNC(=N)N)NC1=O [UPAR-271, Pent-[Cys-Arg-Gln-Tyr-Phe-PPAc-Ile-Nva-Cys]-NH2] (Pentanoyl-CRQYF[X1]I[Nva]C-NH2; disulfide 1-9) | ≥ 126 nM | – | > 100 nM
CC[C@H](C)[C@@H]1NC(=O)[C@@H]2C[C@@H](O)CN2C(=O)[C@@H]2CCCN2C(=O)[C@H](Cc2ccccc2)NC(=O)[C@H](Cc2ccc(O)cc2)NC(=O)[C@H](CCC(N)=O)NC(=O)[C@H](CCCNC(N)=O)NC(=O)[C@@H](NC(=O)[C@H](CC(C)C)NC(=O)CN2CCN(CC(=O)O)CCN(CC(=O)O)CCN(CC(=O)O)CC2)CSSC[C@@H](C(N)=O)NC(=O)[C@H](CC(C)C)N(C)C1=O [UPAR-371, DOTA-Leu-[Cys-Cit-Gln-Tyr-Phe-Pro-Hyp-Ile-Nml-Cys]-NH2] ({DOTA}-LC[Cit]QYFP[Hyp]I[NMeL]C-NH2; disulfide 2-11) | ≥ 126 nM | > 100 nM | –
CCC[C@@H]1NC(=O)[C@H]([C@@H](C)CC)NC(=O)[C@@H]2C[C@@H](O)CN2C(=O)[C@@H]2CCCN2C(=O)[C@H](Cc2ccccc2)NC(=O)[C@H](Cc2ccc(O)cc2)NC(=O)[C@H](CCC(N)=O)NC(=O)[C@H](CCCNC(N)=O)NC(=O)[C@@H](N(C)C(=O)[C@H](CC(C)C)NC(=O)CN2CCN(CC(=O)O)CCN(CC(=O)O)CCN(CC(=O)O)CC2)CSSC[C@@H](C(N)=O)NC1=O [UPAR-142, DOTA-Leu-[Nmc-Cit-Gln-Tyr-Phe-Pro-Hyp-Ile-Nva-Cys]-NH2] ({DOTA}-L[NMeC][Cit]QYFP[Hyp]I[Nva]C-NH2; disulfide 2-11) | ≥ 126 nM | – | 10 to 100 nM

Now from value to molecule:

IC50 [1] | Kd ([2]; single cycle kinetics) | Kd [2] | Compound
≤ 10 nM | 1.58 to 10 nM | – | CC(C)CCC(=O)N[C@H]1CSSC[C@@H](C(N)=O)NC(=O)[C@H](CC(C)C)NC(=O)[C@H](C2CCC2)NC(=O)[C@@H](C)NC(=O)[C@@H]2CCCN2C(=O)[C@H](Cc2ccccc2)NC(=O)[C@H](Cc2ccc(O)cc2)NC(=O)[C@H](CCC(N)=O)NC(=O)[C@H](CCCNC(N)=O)NC1=O [UPAR-453, iHex-[Cys-Cit-Gln-Tyr-Phe-Pro-ala-Cbg-Leu-Cys]-NH2] ({Pentanoyl(4-Me)}-C[Cit]QYFP[dA][Gly(cBu)]LC-NH2; disulfide 1-10)
≤ 10 nM | < 1.58 nM | – | CCCCC(=O)N[C@H]1CSSC[C@@H](C(N)=O)NC(=O)[C@H](CCC)NC(=O)[C@H]([C@@H](C)CC)NC(=O)[C@@H]2C[C@@H](O)CN2C(=O)[C@H](CC(C)C)NC(=O)[C@H](Cc2ccccc2)NC(=O)[C@H](Cc2ccc(O)cc2)NC(=O)[C@H](CCC(N)=O)NC(=O)[C@H](CCCNC(=N)N)NC1=O [UPAR-433, Pent-[Cys-Arg-Gln-Tyr-Phe-Leu-Hyp-Ile-Nva-Cys]-NH2] (Pentanoyl-CRQYFL[Hyp]I[Nva]C-NH2; disulfide 1-10)
≤ 10 nM | – | < 1.58 nM | CC[C@H](C)[C@@H]1NC(=O)[C@@H](C)NC(=O)[C@@H]2CCCN2C(=O)[C@H](Cc2ccccc2)NC(=O)[C@H](Cc2ccc(N)cc2)NC(=O)[C@H](CCC(N)=O)NC(=O)[C@H](CCCNC(N)=O)NC(=O)[C@@H](NC(=O)CCC(C)C)CSSC[C@@H](C(N)=O)NC(=O)[C@H](CC(C)C)NC1=O [UPAR-314, iHex-[Cys-Cit-Gln-Aph-Phe-Pro-ala-Ile-Leu-Cys]-NH2] ({Pentanoyl(4-Me)}-C[Cit]Q[Phe(4-NH2)]FP[dA]ILC-NH2; disulfide 1-10)
≤ 10 nM | < 1.58 nM | – | CCCCC(=O)N[C@H]1CSSC[C@@H](C(N)=O)NC(=O)[C@H](CCC)NC(=O)[C@H](CC(C)(C)C)NC(=O)[C@@H]2C[C@@H](O)CN2C(=O)[C@@H]2CCCN2C(=O)[C@H](Cc2ccccc2)NC(=O)[C@H](Cc2ccc(O)cc2)NC(=O)[C@H](CCC(N)=O)NC(=O)[C@H](CCCNC(=N)N)NC1=O [UPAR-370, Pent-[Cys-Arg-Gln-Tyr-Phe-Pro-Hyp-Npg-Nva-Cys]-NH2] (Pentanoyl-CRQYFP[Hyp][tBuAla][Nva]C-NH2; disulfide 1-10)
12.6 to 31.6 nM | – | 1.58 to 10 nM | CCCCC(=O)N[C@H]1CSSC[C@@H](C(N)=O)NC(=O)[C@H](CCC)NC(=O)[C@H]([C@@H](C)CC)NC(=O)[C@@H]2C[C@@H](O)CN2C(=O)[C@@H]2CCCN2C(=O)[C@H](Cc2ccccc2)NC(=O)[C@H](CC(C)C)NC(=O)[C@H](CCC(N)=O)NC(=O)[C@H](CCCNC(=N)N)NC1=O [UPAR-195, Pent-[Cys-Arg-Gln-Leu-Phe-Pro-Hyp-Ile-Nva-Cys]-NH2] (Pentanoyl-CRQLFP[Hyp]I[Nva]C-NH2; disulfide 1-10)
≤ 10 nM | < 1.58 nM | – | CCC[C@@H]1NC(=O)[C@H]([C@@H](C)CC)NC(=O)[C@@H](C)NC(=O)[C@@H]2CCCN2C(=O)[C@H](Cc2ccccc2)NC(=O)[C@H](Cc2ccc(O)cc2)NC(=O)[C@H](CCC(N)=O)NC(=O)[C@H](CCCNC(N)=O)NC(=O)[C@@H](NC(=O)CCC(C)C)CSSC[C@@H](C(N)=O)NC1=O [UPAR-429, iHex-[Cys-Cit-Gln-Tyr-Phe-Pro-ala-Ile-Nva-Cys]-NH2] ({Pentanoyl(4-Me)}-C[Cit]QYFP[dA]I[Nva]C-NH2; disulfide 1-10)
≤ 10 nM | < 1.58 nM | – | CCCCC(=O)N[C@H]1CSSC[C@@H](C(N)=O)NC(=O)[C@H](CCC)NC(=O)[C@H](CCc2ccccc2)NC(=O)[C@@H]2C[C@@H](O)CN2C(=O)[C@@H]2CCCN2C(=O)[C@H](Cc2ccccc2)NC(=O)[C@H](Cc2ccc(O)cc2)NC(=O)[C@H](CCC(N)=O)NC(=O)[C@H](CCCNC(=N)N)NC1=O [UPAR-461, Pent-[Cys-Arg-Gln-Tyr-Phe-Pro-Hyp-Hfe-Nva-Cys]-NH2] (Pentanoyl-CRQYFP[Hyp][hPhe][Nva]C-NH2; disulfide 1-10)
≤ 10 nM | – | < 1.58 nM | CCCCC(=O)N[C@H]1CSSC[C@@H](C(N)=O)NC(=O)[C@H](CCC)NC(=O)[C@H]([C@@H](C)CC)NC(=O)[C@@H]2C[C@@H](O)CN2C(=O)[C@@H]2CCCN2C(=O)[C@H](Cc2ccccc2)NC(=O)[C@H](Cc2c[nH]cn2)NC(=O)[C@H](CCCCNC(=O)CN2CCN(CC(=O)O)CCN(CC(=O)O)CCN(CC(=O)O)CC2)NC(=O)[C@H](CCCNC(N)=O)NC1=O [UPAR-324, Pent-[Cys-Cit-Lys(DOTA)-His-Phe-Pro-Hyp-Ile-Nva-Cys]-NH2] (Pentanoyl-C[Cit]K(DOTA)HFP[Hyp]I[Nva]C-NH2; disulfide 1-10)
≤ 10 nM | – | < 1.58 nM | CCCCC(=O)N[C@H]1CSSC[C@@H](C(N)=O)NC(=O)[C@H](CCC)NC(=O)[C@H]([C@@H](C)CC)NC(=O)[C@@H]2C[C@H](N)CN2C(=O)[C@@H]2CCCN2C(=O)[C@H](Cc2ccccc2)NC(=O)[C@H](Cc2ccc(O)cc2)NC(=O)[C@H](CCCCNC(=O)CN2CCN(CC(=O)O)CCN(CC(=O)O)CCN(CC(=O)O)CC2)NC(=O)[C@H](CCCNC(N)=O)NC1=O [UPAR-325, Pent-[Cys-Cit-Lys(DOTA)-Tyr-Phe-Pro-4Ap-Ile-Nva-Cys]-NH2] (Pentanoyl-C[Cit]K(DOTA)YFP[Pro(4S-NH2)]I[Nva]C-NH2; disulfide 1-10)
